Blank lines part the entries; values can stand above or below the compound they belong to.
System: 282377-053-R-J1-PDC complex spheroids, viability
Assay: Anticancer human tumor 282377-053-R-J1-PDC patient-derived colon adenocarcinoma cell line growth inhibition [GQUAD]
Conditions: for IC50: curve of first compound; for viability, T/C: stronger effect = lower value
From the text: DNA G-quadruplex Stabilizer Agents in Combinations in Complex Spheroids
A high-throughput screen of multi-cell type tumor spheroids was designed to identify active combinations of DNA G-quadruplex stabilizer agents and targeted small molecules. Complex spheroids include a stromal component modeled by human endothelial cells (HUVEC) and fibroblasts modeled by human mesenchymal stem cells (MSCs). The concentration ranges selected for each drug and investigational agent were based upon clinically achievable concentrations if the clinical Cmax of the agent was known.
Compounds. The drugs and investigational agents: pidnarulex (CX-5461; NSC782164), APTO-253 (NSC789042), BRACO-19 (NSC847499), peposertib (NSC802822), ceralasertib (NSC780249), elimusertib (NSC800525), camonsertib (NSC841442), AZD-1390 (NSC803789), olaparib (NSC753686), talazoparib (NSC767125), ART-558 (NSC835418), sotorasib (NSC818433), MRTX-1133 (NSC836407), SN-38 (NSC673596), topotecan (NSC609699), etoposide (NSC141540), doxorubicin (NSC123127), gemcitabine (NSC613327), 5-fluorouracil (NSC19893), paclitaxel (NSC125973), vemurafenib (NSC761431), panobinostat (NSC761190), R-306465 (JNJ-16241199; NSC773264), adavosertib (NSC754352), TP-3654 (NSC805149), carboplatin (NSC241240), KSQ-4279 (NSC840948), and staurosporine (NSC755774) were obtained from the National Cancer Institute (NCI) Developmental Therapeutics Program Chemical Repository (34). The FDA-approved anticancer drug set is available from the NCI Developmental Therapeutics Program. […] The stock solutions were prepared in dimethyl sulfoxide (DMSO, Sigma-Aldrich, St. Louis, MO, cat. D2650) at 800-fold the tested concentration and stored at -70 degrees C prior to their use. All drugs and investigational agents were tested over a range starting from a high concentration at or near the clinical Cmax and decreasing in half-log increments. If the clinical Cmax for an agent had not been determined, the highest concentration tested was 10 microM.
2.3 Cell Culture. All cells were maintained in an incubator at 37 degrees C and 5% CO2 with 95% humidity. The PDC lines were cultured according to standard operating procedures established by the NCI PDMR. All PDCs were thawed and cultured in Matrigel-coated flasks prepared with a working solution of 1X Ham's F-12 nutrient mix, without supplementation (Invitrogen, cat. 11765054), 100 U/mL penicillin-streptomycin (Invitrogen, cat. 15140122), and 2.5% Matrigel (Corning Inc., cat. 354248) for the first three passages. The 857933-349-R-J2-PDC line was cultured in 6C/Colon 1B media, which includes advanced DMEM/F-12 (Thermo Fisher Scientific, cat. 12634028), 10 mM HEPES (Thermo Fisher Scientific, cat. 15630080), 1X GlutaMAX supplement (Thermo Fisher Scientific, cat. 35050061), 0.1 mg/mL primocin (InvivoGen, cat. ant-pm-2), 10% defined fetal bovine serum, heat inactivated (HyClone Laboratories Inc., cat. SH30070.03HI), 50% L-WRN conditioned media (ATCC, cat. CRL-3276), 1.25 mM N-Acetyl-L-cysteine (Sigma-Aldrich, cat. A9165), 10 mM nicotinamide (Sigma-Aldrich, cat. N0636), 1X B-27 supplement (Thermo Fisher Scientific, cat. 17504044), 1X N-2 supplement (Thermo Fisher Scientific, cat. 17502048), 10 microM Y-27632 dihydrochloride (Tocris Bioscience, cat. 1254), and 50 ng/mL human EGF recombinant protein (Thermo Fisher Scientific, cat. PHG0311). The 485176-168-R4-J1-PDC line was cultured in Panc media, which includes all 6C/Colon 1B media components plus 100 ng/mL human FGF-10 (Thermo Fisher Scientific, cat. 100-26), 500 nM SB-431542 (Selleckchem, cat. S1067), and gastrin (Tocris, cat. 3006).
[…]

[1] = second compound 0.0316 µM, first compound 0.0316 µM
[2] = second compound 0.0316 µM, first compound 0.1 µM
[3] = second compound 0.0316 µM, first compound 0.316 µM
[4] = second compound 0.0316 µM, first compound 1 µM
[5] = second compound 0.0316 µM, first compound 3.16 µM
[6] = second compound 0.0316 µM, first compound 10 µM
[7] = second compound 0.1 µM, first compound 0.0316 µM
[8] = second compound 0.1 µM, first compound 0.1 µM
[9] = second compound 0.1 µM, first compound 0.316 µM
[10] = second compound 0.1 µM, first compound 1 µM
[11] = second compound 0.1 µM, first compound 3.16 µM
[12] = second compound 0.1 µM, first compound 10 µM
[13] = second compound 0.316 µM, first compound 0.0316 µM
[14] = second compound 0.316 µM, first compound 0.1 µM
[15] = second compound 0.316 µM, first compound 0.316 µM
[16] = second compound 0.316 µM, first compound 1 µM
[17] = second compound 0.316 µM, first compound 3.16 µM
[18] = second compound 0.316 µM, first compound 10 µM
[19] = second compound 1 µM, first compound 0.0316 µM
[20] = second compound 1 µM, first compound 0.1 µM
[21] = second compound 1 µM, first compound 0.316 µM
[22] = second compound 1 µM, first compound 1 µM
[23] = second compound 1 µM, first compound 3.16 µM
[24] = second compound 1 µM, first compound 10 µM
[25] = second compound 3.16 µM, first compound 0.0316 µM
[26] = second compound 3.16 µM, first compound 0.1 µM
[27] = second compound 3.16 µM, first compound 0.316 µM
[28] = second compound 3.16 µM, first compound 1 µM
[29] = second compound 3.16 µM, first compound 3.16 µM
[30] = second compound 3.16 µM, first compound 10 µM
[31] = second compound 10 µM, first compound 0.0316 µM
[32] = second compound 10 µM, first compound 0.1 µM
[33] = second compound 10 µM, first compound 0.316 µM
[34] = second compound 10 µM, first compound 1 µM
[35] = second compound 10 µM, first compound 3.16 µM
[36] = second compound 10 µM, first compound 10 µM
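Note: spheroids exposed to compounds for 7 days before readout.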
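Throughout, for viability, T/C: percent of vehicle DMSO control viability with 100% = untreated-like growth.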

SMILES: CC1COCCN1c1cc(C2(S(C)(=N)=O)CC2)nc(-c2ccnc3[nH]ccc23)n1 (stereo unspecified) + Cc1[nH]c2ccc(F)cc2c1-c1nc2c3cccnc3c3ncccc3c2[nH]1
IC50 (second compound 0.0316 µM): > 10 µM | IC50 (second compound 0.1 µM): 8.74 µM | IC50 (second compound 0.316 µM): > 10 µM | IC50 (second compound 1 µM): 4.98 µM | IC50 (second compound 3.16 µM): 0.822 µM | IC50 (second compound 10 µM): < 0.0316 µM | viability, T/C [1]: 85.5% | viability, T/C [2]: 83.7% | viability, T/C [3]: 101% | viability, T/C [4]: 81.8% | viability, T/C [5]: 78.5% | viability, T/C [6]: 55.6% | viability, T/C [7]: 90% | viability, T/C [8]: 91.8% | viability, T/C [9]: 82% | viability, T/C [10]: 94.8% | viability, T/C [11]: 61.8% | viability, T/C [12]: 48.5% | viability, T/C [13]: 94.5% | viability, T/C [14]: 97.3% | viability, T/C [15]: 65.4% | viability, T/C [16]: 69.5% | viability, T/C [17]: 84.5% | viability, T/C [18]: 49.6% | viability, T/C [19]: 100% | viability, T/C [20]: 81.4% | viability, T/C [21]: 87.3% | viability, T/C [22]: 86.2% | viability, T/C [23]: 57.7% | viability, T/C [24]: 38.1% | viability, T/C [25]: 65.2% | viability, T/C [26]: 71% | viability, T/C [27]: 56.2% | viability, T/C [28]: 47.8% | viability, T/C [29]: 31.9% | viability, T/C [30]: 10.4% | viability, T/C [31]: 41.6% | viability, T/C [32]: 41% | viability, T/C [33]: 49.8% | viability, T/C [34]: 29.5% | viability, T/C [35]: 18.1% | viability, T/C [36]: 6.17%

SMILES: O=C(NO)c1cnc(N2CCN(S(=O)(=O)c3ccc4ccccc4c3)CC2)nc1 + Cc1[nH]c2ccc(F)cc2c1-c1nc2c3cccnc3c3ncccc3c2[nH]1
IC50 (second compound 0.0316 µM): 0.0563 µM | IC50 (second compound 0.1 µM): 0.0553 µM | IC50 (second compound 0.316 µM): 0.0452 µM | IC50 (second compound 1 µM): 0.0402 µM | IC50 (second compound 3.16 µM): < 0.0316 µM | IC50 (second compound 10 µM): < 0.0316 µM | viability, T/C [1]: 78% | viability, T/C [2]: 17.6% | viability, T/C [3]: 18.6% | viability, T/C [4]: 19.8% | viability, T/C [5]: 24% | viability, T/C [6]: 30.6% | viability, T/C [7]: 78% | viability, T/C [8]: 18.6% | viability, T/C [9]: 16.4% | viability, T/C [10]: 18.6% | viability, T/C [11]: 21.2% | viability, T/C [12]: 26.9% | viability, T/C [13]: 63.6% | viability, T/C [14]: 18.4% | viability, T/C [15]: 17.1% | viability, T/C [16]: 18.1% | viability, T/C [17]: 21.4% | viability, T/C [18]: 22.9% | viability, T/C [19]: 58.7% | viability, T/C [20]: 15.1% | viability, T/C [21]: 19.3% | viability, T/C [22]: 13.7% | viability, T/C [23]: 16.1% | viability, T/C [24]: 21.8% | viability, T/C [25]: 30.5% | viability, T/C [26]: 7.85% | viability, T/C [27]: 7.14% | viability, T/C [28]: 6.02% | viability, T/C [29]: 6.61% | viability, T/C [30]: 7.81% | viability, T/C [31]: 19.7% | viability, T/C [32]: 7.83% | viability, T/C [33]: 5.03% | viability, T/C [34]: 6.51% | viability, T/C [35]: 4.71% | viability, T/C [36]: 7.67%

IC50 (second compound 0.0316 µM): > 10 µM | IC50 (second compound 0.1 µM): 4.51 µM | IC50 (second compound 0.316 µM): 5.63 µM | IC50 (second compound 1 µM): 3.78 µM | IC50 (second compound 3.16 µM): 3.52 µM | IC50 (second compound 10 µM): < 0.0316 µM
SMILES: CC1COCCN1c1cc(C2(S(C)(=N)=O)CC2)nc(-c2ccnc3[nH]ccc23)n1 (stereo unspecified) + Cc1cnc(CNC(=O)c2c(=O)c3ccc(N4CCCN(C)CC4)nc3n3c2sc2ccccc23)cn1
viability, T/C [1]: 94.2% | viability, T/C [2]: 78.7% | viability, T/C [3]: 96.2% | viability, T/C [4]: 89.1% | viability, T/C [5]: 61.1% | viability, T/C [6]: 50.6% | viability, T/C [7]: 99.5% | viability, T/C [8]: 115% | viability, T/C [9]: 94.4% | viability, T/C [10]: 76.2% | viability, T/C [11]: 59.1% | viability, T/C [12]: 35.4% | viability, T/C [13]: 83.2% | viability, T/C [14]: 92.2% | viability, T/C [15]: 97.1% | viability, T/C [16]: 81% | viability, T/C [17]: 64.3% | viability, T/C [18]: 36.3% | viability, T/C [19]: 68.4% | viability, T/C [20]: 79.2% | viability, T/C [21]: 70.9% | viability, T/C [22]: 61% | viability, T/C [23]: 55.6% | viability, T/C [24]: 30% | viability, T/C [25]: 49.1% | viability, T/C [26]: 56.1% | viability, T/C [27]: 68.5% | viability, T/C [28]: 50.1% | viability, T/C [29]: 52.2% | viability, T/C [30]: 34.6% | viability, T/C [31]: 42.1% | viability, T/C [32]: 52% | viability, T/C [33]: 54.5% | viability, T/C [34]: 43.9% | viability, T/C [35]: 43.1% | viability, T/C [36]: 29.1%

Source: PubChem BioAssay AID2060501 (Molecular Pharmacology Branch, DTP, NCI, 2025)
